Measured values as given in US20080280837A1, “Biologically Active Compounds with Anti-Angiogenic Properties” (priority 2004, published 2008).
Where a name gives a salt, the structure may show the parent alone.

Experiments:
[1] = Solubility of salts of compound 1; assay type: physicochemical; settings: for Solubility in Water: overnight
[2] = test system: Human Umbilical Vein Endothelial Cells (HUVEC); assay: Endothelial cell proliferation assay (MTS); assay type: cell-based; settings: 48 hrs
Protocol: Human Umbilical Vein Endothelial Cells (HUVEC from Clonetics) were plated in 96 well plates at 1000 cell per well in EGM-2 medium (Clonetics). Cells were grown overnight at 37° C. in 5% CO2. Fresh EGM-2 medium containing compound at the desired concentration was added to the wells and the cells allowed to grow for a further 48 hrs. A MTS (Promega) colorimetric assay was performed after 48 hrs to determine cell growth according to the manufacturers instructions. Results are presented in terms of percentage growth.

SSTR-3 = target: T1, SSTR-3 (Homo sapiens, UniProt P32745); assay: Radioligand binding screen against somatostatin subtype SSTR-3; settings: Table 8; for Ki: read-out: Ki SSTR3; for IC50: shown where Ki could not be determined (NoModel), read-out: IC50 SSTR3 (in parentheses)
T1 construct: expressed in transfected cells
T1 sequence (P32745 whole entry): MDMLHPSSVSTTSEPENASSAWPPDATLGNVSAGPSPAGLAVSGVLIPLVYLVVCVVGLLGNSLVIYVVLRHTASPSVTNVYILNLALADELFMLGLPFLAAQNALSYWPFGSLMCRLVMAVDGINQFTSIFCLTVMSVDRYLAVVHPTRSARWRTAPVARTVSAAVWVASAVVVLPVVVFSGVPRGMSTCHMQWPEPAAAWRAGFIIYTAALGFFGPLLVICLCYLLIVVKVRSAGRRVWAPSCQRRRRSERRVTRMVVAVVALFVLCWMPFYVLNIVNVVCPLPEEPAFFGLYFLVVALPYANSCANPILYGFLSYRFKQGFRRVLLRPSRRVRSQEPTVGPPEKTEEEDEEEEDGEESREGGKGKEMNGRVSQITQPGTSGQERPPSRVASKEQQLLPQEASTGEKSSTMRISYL
Protocol: (§1) Receptor membrane preparations containing the desired cloned receptor (for example cloned human somatostatin receptor subtype 5, SSTR5) and radio-labeled ligand (for example 3-[^125I]iodotyrosyl^11 Somatostatin-14)) were diluted at the concentration required for testing and according to the specific parameters associated with the selected receptor-ligand combination, including receptor Bmax, ligand Kd and any other parameters necessary to optimize the experimental conditions. When tested for competition activity to the reference ligand, “compound 1” was mixed with membrane suspension and the radiolabeled reference ligand (with or without an excess of cold ligand to the receptor for determination of non-specific binding) and incubated at the temperature required by internal standard operating procedures. Following incubation, the binding reaction was stopped by the addition of ice-cold washing buffer and filtered on appropriate filters, which are then counted. Data analysis and curve-fitting was performed with XLfit (IDBS).
(§2) 10 mM solutions of test compounds in 100% DMSO were prepared. ˜160 μl was used for each dilution (20 μl/well in triplicate).
(§3) A 1.25 mM assay stock was prepared by making a 1:8 dilution of the 10 mM solution. (To 30 μL of the 10 mM solution was added 210 μL milli-Q H2O. A 1:5 dilution series in milli-Q H2O was then prepared.
(§4) In primary screening experiments compounds were tested in duplicate for a particular concentration.

SSTR-4 = target: T2, SSTR-4 (Homo sapiens, UniProt P31391); assay: Radioligand binding screen against somatostatin subtype SSTR-4 (SST4 assay); settings: Table 8; read-out: Ki SSTR4
T2 construct: expressed in transfected cells
T2 sequence (P31391 whole entry): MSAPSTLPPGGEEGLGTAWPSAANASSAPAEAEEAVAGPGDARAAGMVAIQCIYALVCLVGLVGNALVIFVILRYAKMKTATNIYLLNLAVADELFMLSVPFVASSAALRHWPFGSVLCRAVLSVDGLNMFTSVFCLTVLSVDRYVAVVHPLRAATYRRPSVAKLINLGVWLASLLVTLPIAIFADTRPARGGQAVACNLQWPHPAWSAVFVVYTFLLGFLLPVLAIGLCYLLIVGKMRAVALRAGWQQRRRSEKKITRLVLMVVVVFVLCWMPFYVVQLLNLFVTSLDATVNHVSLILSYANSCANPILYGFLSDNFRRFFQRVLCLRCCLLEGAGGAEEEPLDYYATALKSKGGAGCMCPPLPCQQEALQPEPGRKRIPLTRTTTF
Protocol: as §1, §2, §3
Assays were performed in triplicate at each concentration within the 1:5 dilution series: 250 μM, 50 μM, 10 μM, […], 0.4 μM, 0.08 μM, 0.016 μM, 0.0032 μM, etc. (for SST4 assay) and 125 μM, 10 μM, 2 μM, 1 μM, 0.5 μM, etc (for SST5 assay).
as §4

SSTR-2 = target: T3, SSTR-2 (Homo sapiens, UniProt P30874); assay: Radioligand binding screen against somatostatin subtype SSTR-2; settings: Table 8; read-out: Ki SSTR2
T3 construct: expressed in transfected cells
T3 sequence (P30874 whole entry): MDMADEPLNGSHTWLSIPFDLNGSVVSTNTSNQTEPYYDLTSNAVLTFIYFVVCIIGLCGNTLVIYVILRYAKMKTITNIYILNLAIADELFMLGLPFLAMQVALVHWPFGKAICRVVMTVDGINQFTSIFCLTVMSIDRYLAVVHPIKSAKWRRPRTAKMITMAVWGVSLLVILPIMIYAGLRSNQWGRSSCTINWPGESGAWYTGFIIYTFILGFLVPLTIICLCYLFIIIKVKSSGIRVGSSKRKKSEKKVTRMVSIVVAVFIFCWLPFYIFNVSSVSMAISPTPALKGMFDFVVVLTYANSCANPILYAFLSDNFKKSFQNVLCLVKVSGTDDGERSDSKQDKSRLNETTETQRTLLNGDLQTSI
Protocol: as §1, §2, §3, §4

[3] = target: T4, Human SST5 somatostatin receptor (SSTR5) (Homo sapiens, UniProt P35346); assay: Filter plate assay for SST5 receptor, displacement of [125I]SST-14; assay type: binding
T4 construct: expressed in transfected cells; host or cells: HEK-293 EBNA
T4 sequence (P35346 whole entry): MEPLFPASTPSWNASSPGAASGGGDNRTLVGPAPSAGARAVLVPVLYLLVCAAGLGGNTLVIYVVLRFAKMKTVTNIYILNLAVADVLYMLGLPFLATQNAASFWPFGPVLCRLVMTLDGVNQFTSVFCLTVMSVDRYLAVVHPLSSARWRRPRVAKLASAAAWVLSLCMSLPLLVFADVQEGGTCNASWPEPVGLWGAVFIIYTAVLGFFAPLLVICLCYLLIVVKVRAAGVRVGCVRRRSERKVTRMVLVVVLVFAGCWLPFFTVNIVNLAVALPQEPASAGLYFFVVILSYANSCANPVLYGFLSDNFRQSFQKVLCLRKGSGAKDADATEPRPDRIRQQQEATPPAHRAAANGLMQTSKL
Method in brief: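 HEK-293 EBNA membranes expressing human SST5 (5.5 μg) incubated 60 min at 25 °C with 4 nM [125I]SST-14 and compound in pH 7.5 Tris/EGTA/MgCl2/sucrose buffer. Bound radioactivity collected on PEI-coated glass fiber filters and counted; triplicate 1:5 dilution series from 125 μM, non-specific binding with excess cold ligand.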

SSTR-1 = target: T5, SSTR-1 (Homo sapiens, UniProt P30872); assay: Radioligand binding screen against somatostatin subtype SSTR-1; settings: Table 8; read-out: Ki SSTR1
T5 construct: expressed in transfected cells
T5 sequence (P30872 whole entry, species assumed): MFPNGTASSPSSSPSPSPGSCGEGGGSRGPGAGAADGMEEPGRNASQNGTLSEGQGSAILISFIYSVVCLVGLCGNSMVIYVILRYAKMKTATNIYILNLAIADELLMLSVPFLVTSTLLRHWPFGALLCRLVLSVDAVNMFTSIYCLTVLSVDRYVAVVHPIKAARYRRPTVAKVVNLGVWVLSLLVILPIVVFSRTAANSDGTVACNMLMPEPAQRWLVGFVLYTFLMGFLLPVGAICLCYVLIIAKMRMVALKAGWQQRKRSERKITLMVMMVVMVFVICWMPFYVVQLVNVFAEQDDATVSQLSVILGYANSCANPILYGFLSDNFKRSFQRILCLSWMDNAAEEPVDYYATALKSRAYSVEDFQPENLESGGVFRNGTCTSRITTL
Protocol: as §1, §2, §3, §4

HUVEC tube formation = assay: Matrigel tube formation assay; assay type: cell-based, human; settings: 22 hrs, 50% inhibition of tube formation
Protocol: HUVEC (Clonetics) were plated in 96 well plates in EGM-2 media (Clonetics) at 2.5 to 3×10^4 cells per well. Cells of less than 6 passages were used in all studies. Wells were precoated with 50 μL growth factor containing Matrigel (Becton Dickinson). HUVEC were allowed to form tubes by incubation at 37° C. in 5% CO2 for 22 hrs. In test wells compound was added in the desired concentration. Photographic images of the wells ×4 magnification were used to determine size of the tubes, length of tubes and number of junctions using image analysis software.

SMILES	Solubility in Water [1] [µg/mL]	Percent cell growth at 125 µM [2] [%]	Percent cell growth at 250 µM [2] [%]	Ki (SSTR-4) [nM]	Ki (SSTR-2) [nM]	Ki ([3]; Table 8) [nM]	Ki (SSTR-1) [nM]	also measured
COC[C@H]1O[C@H](OCCc2ccccc2)[C@H](NC(=O)CCCN)[C@@H](OCc2ccc3ccccc3c2)[C@@H]1O [TFA]	3640	–	–	–	–	–	–	Solubility in 5% Glucose ([1]; 5% Glucose, Day 3): 5270 µg/mL
CO[C@H]1[C@H](O)[C@@H](COCc2ccc3ccccc3c2)OC(OCc2ccc(Cl)cc2)[C@@H]1NC(=O)C1CCCN(C(=N)N)C1 (some centres unmarked) [Compound 14]	–	-95	-90	> 10000	1210	549	> 10000	Ki (SSTR-3): 340 nM
COC[C@H]1O[C@H](OCc2ccc3ccccc3c2)[C@H](NC(=O)CCN)[C@H](OCc2ccc3ccccc3c2)[C@@H]1O [Compound 15]	–	-78	-67	2260	1040	73	1960	Ki (SSTR-3): 792 nM
COC[C@H]1OC(OCc2ccc3ccccc3c2)[C@H](NC(=O)CCN)[C@H](OCc2ccc3ccccc3c2)[C@@H]1O (some centres unmarked) [Compound 16]	–	–	–	4380	860	85	2370	Ki (SSTR-3): 441 nM
COCC1OC(OCc2ccc(Cl)cc2)C(NC(=O)CCN)C(OCc2ccc3ccccc3c2)C1O (stereo not drawn) [3 beta]	–	–	–	–	–	–	–	EC50 (HUVEC tube formation): 90000 nM
COCC1OC(OCc2ccc3ccccc3c2)C(NC(=O)CCN)C(OCc2ccc3ccccc3c2)C1O (stereo not drawn) [16 alpha]	–	–	–	–	–	–	–	EC50 (HUVEC tube formation): 55000 nM
COCC1OC(OCc2ccc3ccccc3c2)C(NC(=O)CCN)C(OCc2ccc(Cl)cc2)C1O (stereo not drawn) [7 beta]	–	–	–	–	–	–	–	EC50 (HUVEC tube formation): 95000 nM
COC[C@H]1O[C@H](OCCc2ccccc2)[C@H](NC(=O)CCCN)[C@@H](OCc2ccc3ccccc3c2)[C@@H]1O [Citrate]	4540	–	–	–	–	–	–	–
COC[C@H]1O[C@H](OCCc2ccccc2)[C@H](NC(=O)CCCN)[C@@H](OCc2ccc3ccccc3c2)[C@@H]1O [Hydrochloride]	7870	–	–	–	–	–	–	solubility at 3 day ([1]; 5% glucose, saline or isotonic, 5% Glucose, Day 3): 6300 µg/mL
COC[C@H]1O[C@@H](OCc2ccc3ccccc3c2)[C@H](NC(=O)CCCN)[C@@H](OCc2ccc(Cl)cc2)[C@@H]1O [Compound 12]	–	-95	-71	> 10000	5060	46	> 10000	IC50 (SSTR-3): 429 nM
COC[C@H]1OC(OCc2ccc(Cl)cc2)[C@H](NC(=O)CCN)[C@H](OCc2ccc3ccccc3c2)[C@@H]1O (some centres unmarked) [Compound 3]	–	-75	-39	4580	1230	–	3730	IC50 (SSTR-3): 127 nM; IC50 ([3]; Table 8, shown where Ki could not be determined (NoModel), read-out: IC50 SSTR5 (in parentheses)): 147 nM
COC[C@H]1O[C@H](OCCc2ccccc2)[C@H](NC(=O)CCCN)[C@@H](OCc2ccc3ccccc3c2)[C@@H]1O [Methanesulphonate]	5170	–	–	–	–	–	–	–
COC1C(O)C(COCc2ccc(-c3ccccc3)cc2)OC(OCc2ccc3ccccc3c2)C1NC(=O)CCNC(=N)N (centres unmarked) [Compound 169]	–	–	–	–	–	–	–	SSTR5 Inhib 0.5 uM % (inhibition of binding of SST-14 to SSTR5) ([3]; 0.5 uM): 27%; SSTR5 Inhib 10 uM % (inhibition of binding of SST-14 to SSTR5) ([3]; 10 uM): 72%
